Reference: PubChem BioAssay (NCI)
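Cells were grown in 96-well plates and exposed to each compound for 48 hours at five concentrations; endpoints were interpolated linearly between bracketing concentrations, or set to the highest concentration if not reached. At the GI50, growth is halved. TGI is the concentration that stops growth completely.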

How the values were obtained:
Experiment in all cases: NCI tumour cell line growth inhibition, 48 h
HT29 colon = test system: HT29 colon
NCI-H226 lung = test system: NCI-H226 lung
CAKI-1 renal = test system: CAKI-1 renal
U251 CNS = test system: U251 CNS
HL-60(TB) leukemia = test system: HL-60(TB) leukemia
SK-MEL-2 melanoma = test system: SK-MEL-2 melanoma
HCT-15 colon = test system: HCT-15 colon
K-562 leukemia = test system: K-562 leukemia
MDA-MB-435 = test system: MDA-MB-435
HOP-62 NSCLC = test system: HOP-62 NSCLC
ACHN renal = test system: ACHN renal
SN12C renal = test system: SN12C renal
UACC-257 melanoma = test system: UACC-257 melanoma
MCF7 breast = test system: MCF7 breast
HCC-2998 colon = test system: HCC-2998 colon
NCI-H23 lung = test system: NCI-H23 lung
COLO 205 colon = test system: COLO 205 colon
T-47D breast = test system: T-47D breast
SNB-75 CNS = test system: SNB-75 CNS
OVCAR-8 ovarian = test system: OVCAR-8 ovarian
NCI/ADR-RES ovarian = test system: NCI/ADR-RES ovarian
RPMI-8226 leukemia = test system: RPMI-8226 leukemia
SF-295 CNS = test system: SF-295 CNS
SF-268 CNS = test system: SF-268 CNS
KM12 colon = test system: KM12 colon
NCI-H522 lung = test system: NCI-H522 lung
OVCAR-4 ovarian = test system: OVCAR-4 ovarian
OVCAR-3 ovarian = test system: OVCAR-3 ovarian
UACC-62 melanoma = test system: UACC-62 melanoma
CCRF-CEM leukemia = test system: CCRF-CEM leukemia
TK-10 renal = test system: TK-10 renal
HCT-116 colon = test system: HCT-116 colon
MOLT-4 leukemia = test system: MOLT-4 leukemia
RXF 393 renal = test system: RXF 393 renal
PC-3 prostate = test system: PC-3 prostate
786-0 renal = test system: 786-0 renal
DU-145 prostate = test system: DU-145 prostate
SK-MEL-5 melanoma = test system: SK-MEL-5 melanoma
EKVX NSCLC = test system: EKVX NSCLC
NCI-H460 lung = test system: NCI-H460 lung
OVCAR-5 ovarian = test system: OVCAR-5 ovarian
SW-620 colon = test system: SW-620 colon
HS 578T breast = test system: HS 578T breast
SNB-19 CNS = test system: SNB-19 CNS
M14 melanoma = test system: M14 melanoma
SR leukemia = test system: SR leukemia
A549 NSCLC = test system: A549 NSCLC
IGROV1 ovarian = test system: IGROV1 ovarian
SK-OV-3 ovarian = test system: SK-OV-3 ovarian
BT-549 breast = test system: BT-549 breast
MDA-MB-231 breast = test system: MDA-MB-231 breast
SK-MEL-28 melanoma = test system: SK-MEL-28 melanoma
A498 renal = test system: A498 renal
SF-539 CNS = test system: SF-539 CNS
LOX IMVI melanoma = test system: LOX IMVI melanoma
HOP-92 NSCLC = test system: HOP-92 NSCLC

What does the source list for `O=c1[nH]c(=S)[nH]c(O)c1/C=C1\C=Nc2ccccc21`?
GI50 (HT29 colon): 3.37 µM; TGI (HT29 colon): 10.6 µM; GI50 (NCI-H226 lung): 12.5 µM; TGI (NCI-H226 lung): 46.1 µM; GI50 (CAKI-1 renal): 3.61 µM; TGI (CAKI-1 renal): 20.3 µM; GI50 (U251 CNS): 2.11 µM; TGI (U251 CNS): 5.87 µM; GI50 (HL-60(TB) leukemia): 2.65 µM; TGI (HL-60(TB) leukemia): 8.88 µM; GI50 (SK-MEL-2 melanoma): 19.5 µM; TGI (SK-MEL-2 melanoma): 59 µM; GI50 (HCT-15 colon): 2.78 µM; TGI (HCT-15 colon): 8.07 µM; GI50 (K-562 leukemia): 8.04 µM; TGI (K-562 leukemia): > 100 µM; GI50 (MDA-MB-435): 2.01 µM; TGI (MDA-MB-435): 4.94 µM; GI50 (HOP-62 NSCLC): 3.66 µM; TGI (HOP-62 NSCLC): 38.4 µM; GI50 (ACHN renal): 11.4 µM; TGI (ACHN renal): 24.3 µM; GI50 (SN12C renal): 7.95 µM; TGI (SN12C renal): 59.4 µM; GI50 (UACC-257 melanoma): 14.2 µM; TGI (UACC-257 melanoma): 53.6 µM; GI50 (MCF7 breast): 3.95 µM; TGI (MCF7 breast): 23.9 µM; GI50 (HCC-2998 colon): 11.4 µM; TGI (HCC-2998 colon): 24.8 µM; GI50 (NCI-H23 lung): 12.4 µM; TGI (NCI-H23 lung): 44.2 µM; GI50 (COLO 205 colon): 3.77 µM; TGI (COLO 205 colon): 18.3 µM; GI50 (T-47D breast): 34.4 µM; TGI (T-47D breast): > 100 µM; GI50 (SNB-75 CNS): 1.73 µM; TGI (SNB-75 CNS): 5 µM; GI50 (OVCAR-8 ovarian): 3.47 µM; TGI (OVCAR-8 ovarian): > 100 µM; GI50 (NCI/ADR-RES ovarian): 6.64 µM; TGI (NCI/ADR-RES ovarian): 58 µM; GI50 (RPMI-8226 leukemia): 2.34 µM; TGI (RPMI-8226 leukemia): 6.49 µM; GI50 (SF-295 CNS): 1.81 µM; TGI (SF-295 CNS): 6.84 µM; GI50 (SF-268 CNS): 2.52 µM; TGI (SF-268 CNS): 7.91 µM; GI50 (KM12 colon): 1.64 µM; TGI (KM12 colon): 3.34 µM; GI50 (NCI-H522 lung): 16.9 µM; TGI (NCI-H522 lung): 54.4 µM; GI50 (OVCAR-4 ovarian): 21.2 µM; TGI (OVCAR-4 ovarian): > 100 µM; GI50 (OVCAR-3 ovarian): 1.44 µM; TGI (OVCAR-3 ovarian): 3.13 µM; GI50 (UACC-62 melanoma): 8.26 µM; TGI (UACC-62 melanoma): 46.9 µM; GI50 (CCRF-CEM leukemia): 2.12 µM; TGI (CCRF-CEM leukemia): 6.47 µM; GI50 (TK-10 renal): 25.1 µM; TGI (TK-10 renal): > 100 µM; GI50 (HCT-116 colon): 2.49 µM; TGI (HCT-116 colon): 10.1 µM; GI50 (MOLT-4 leukemia): 2.51 µM; TGI (MOLT-4 leukemia): 8.02 µM; GI50 (RXF 393 renal): 3.71 µM; TGI (RXF 393 renal): 14.6 µM; GI50 (PC-3 prostate): 4.88 µM; TGI (PC-3 prostate): 73.3 µM; GI50 (786-0 renal): 6.47 µM; TGI (786-0 renal): 22.2 µM; GI50 (DU-145 prostate): 10.3 µM; TGI (DU-145 prostate): 35.4 µM; GI50 (SK-MEL-5 melanoma): 11.7 µM; TGI (SK-MEL-5 melanoma): 27.2 µM; GI50 (EKVX NSCLC): 7.14 µM; TGI (EKVX NSCLC): 32.8 µM; GI50 (NCI-H460 lung): 4.07 µM; TGI (NCI-H460 lung): 18.5 µM; GI50 (OVCAR-5 ovarian): 25.7 µM; TGI (OVCAR-5 ovarian): > 100 µM; GI50 (SW-620 colon): 1.83 µM; TGI (SW-620 colon): 3.78 µM; GI50 (HS 578T breast): 1.95 µM; TGI (HS 578T breast): 6.19 µM; GI50 (SNB-19 CNS): 4.53 µM; TGI (SNB-19 CNS): 59.3 µM; GI50 (M14 melanoma): 10.6 µM; TGI (M14 melanoma): 35.1 µM; GI50 (SR leukemia): 1.72 µM; TGI (SR leukemia): 4.52 µM; GI50 (A549 NSCLC): 37.2 µM; TGI (A549 NSCLC): > 100 µM; GI50 (IGROV1 ovarian): 1.02 µM; TGI (IGROV1 ovarian): 5.55 µM; GI50 (SK-OV-3 ovarian): 15.7 µM; TGI (SK-OV-3 ovarian): 81.5 µM; GI50 (BT-549 breast): 9.92 µM; TGI (BT-549 breast): 37.4 µM; GI50 (MDA-MB-231 breast): 4.1 µM; TGI (MDA-MB-231 breast): 33.6 µM; GI50 (SK-MEL-28 melanoma): 6.69 µM; TGI (SK-MEL-28 melanoma): 48.3 µM; GI50 (A498 renal): 12.3 µM; TGI (A498 renal): 28.4 µM; GI50 (SF-539 CNS): 3.11 µM; TGI (SF-539 CNS): 9.87 µM; GI50 (LOX IMVI melanoma): 2.46 µM; TGI (LOX IMVI melanoma): 11.1 µM; GI50 (HOP-92 NSCLC): 3.36 µM; TGI (HOP-92 NSCLC): 27.3 µM
